In brackets after ≈: the same amount, converted by molar mass.
Tests used:
[1] = tested on: hypoxic pulmonary vasoconstriction (HPV) response; experiment: Acute hypoxic rat model: pulmonary (PAP) and systemic (MAP) arterial pressure after treatment; assay type: in vivo
Experimental: Surgical procedures and hemodynamic measurements: Rats were anesthetized by intramuscular injection with ketamine/xylazine mixture (75 and 6 mg/kg, respectively). The ventral neck was shaved and a 2 cm incision was made in the right ventral neck where the jugular vein and right carotid artery were isolated via blunt dissection. A polyethylene (PE-50) catheter was introduced into the right carotid to measure systemic blood pressure. A polyvinyl (PV-1) catheter was inserted into the jugular vein and threaded through the right atrium, right ventricle, and into the lumen of the main pulmonary artery to obtain pulmonary arterial pressure. Fluid filled catheters were connected to pressure transducers and monitored continuously with the MP150 data acquisition system (BioPAC Systems; Goleta, Calif.). Blood pressures were recorded every two minutes for data analysis.
After completion of catheter placements and instrumentation for hemodynamic measurements, a 1 cm incision was made above the trachea, and the trachea was isolated by blunt dissection. A tracheotomy was performed approximately 4 mm above the carina and an endotracheal tube specially designed for rats was inserted such that the end of the tube was placed roughly 2 mm distal from the carina. This placement allowed the tip of a Microsprayer® attached to the FMJ-250 syringe (Penn-Century; Philadelphia, Pa.) to protrude approximately 1 mm from the trachea tube and deliver aerosolized emulsion to both right and left lung periphery (FIG. 1A).
Testing efficacy of intrapulmonary delivery of ambrisentan: following instrumentation and tracheotomy, anesthetized rats were placed in a specially designed Plexiglas box built to accommodate exteriorized catheters for completion of the study protocol (depicted graphically in FIG. 1B). Baseline PAP and mean systemic arterial pressure (MAP) were recorded. Next, rats were switched from breathing room air to a hypoxic gas mixture for 10 minutes. Acute hypoxia was induced in rats by exposure to 13% O2 (room air/nitrogen dilution; FIG. 1A). […] This first hypoxic challenge was followed by 20 minutes of room air breathing. […] During this period of room air breathing, rats were allowed to recover from hypoxia for 10 minutes prior to treatment administration via the Microsprayera Treatments were delivered as a 100-microliter bolus aerosol immediately following emulsification to avoid potential phase separation. Following treatment, rats remained breathing room air for an additional 10 minutes to allow drug absorption before being exposed to a second 10-minute hypoxic challenge. Following the second hypoxic challenge, rats returned to breathing room air and blood pressures were monitored for 15 minutes before animals were euthanized with intravenous injection of a euthanasia agent.
Intravenous infusion: As a reference to aid in understanding the response of intrapulmonary delivery of ambrisentan, an additional treatment group for intravenous (IV) infusion of ambrisentan was also investigated (5 mg/kg; 0.5 mL saline). […]
This study was conducted to test the use and efficacy of a water-in-fluorocarbon emulsion of this disclosure to encapsulate ambrisentan or sodium nitrite for intrapulmonary drug delivery. An acute hypoxic rat model was used, and pulmonary and systemic arterial pressure were recorded to determine efficacy of the drug delivery system for treatment of the acute hypoxic pulmonary vasoconstrictive response. […]

[2] = Solubility of ambrisentan in PBS; assay type: physicochemical; conditions: pH 7.8, aqueous buffer, pH raised to 7.8
Text: The aqueous solution of ambrisentan was then mixed with Krytox and PFOB and emulsified as previously described.

| MAP during the second hypoxic challenge ([1]; in vivo) | solubility [2] | Structure (SMILES) | adverse effects (systemic arterial pressure during acute hypoxia) ([1]; in vivo) | pulmonary arterial pressure compared to the empty emulsion ([1]; acute hypoxia, intrapulmonary emulsion, 0.1 mg/kg) | adverse effects (systemic arterial pressure during acute hypoxia) ([1]; intrapulmonary emulsion) | mean pulmonary arterial pressure when exposed to acute hypoxia ([1]; intrapulmonary emulsion, high dose 0.5 mg/kg) |
| --- | --- | --- | --- | --- | --- | --- |
| did not further reduce | ~100 mg/mL (≈ 264 mM) | COC(c1ccccc1)(c1ccccc1)[C@H](Oc1nc(C)cc(C)n1)C(=O)O [ambrisentan] | no adverse effects were observed |  |  |  |
|  |  | O=NO [sodium nitrite] |  | did not significantly change | no adverse effects were observed | significantly reduced |
